According to PubChem BioAssay AID2842 (Southern Research Institute, 2010):
In brackets after ≈: the same amount, converted by molar mass.

Test system: M. tuberculosis H37Rv growth inhibition
Assay: Mycobacterium tuberculosis H37Rv growth inhibition, putative kinase inhibitor library, confirmatory dose response (AID 2842);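 further: bacteria incubated one week before Alamar blue readout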

| SMILES | IC90 [µg/mL] |
| --- | --- |
| CN(c1ccccc1)S(=O)(=O)c1ccc(C(=O)Nc2nnc(-c3ccco3)o2)cc1 | 8.33 (≈ 19.6 µM) |
| Clc1cc(Cl)c2nc(N3CCCC3)sc2c1 | 19 (≈ 69.5 µM) |
| COc1cc(-c2nnc(NC(=O)C3CCCCC3)o2)cc(OC)c1OC | 18.4 (≈ 50.8 µM) |
| Cc1oc2c(c1C(=O)NCc1cccnc1)C(=O)c1ccccc1C2=O | 8.29 (≈ 23.9 µM) |
| COc1ccccc1Nc1nc(NCc2ccco2)c2ccccc2n1 | 5.62 (≈ 16.2 µM) |
| O=C(CSc1n[nH]c(=O)[nH]c1=O)c1ccccc1 | 12.1 (≈ 45.9 µM) |
| CSc1cccc2sc(Nc3cccc(Cl)c3)nc12 | 5.38 (≈ 17.5 µM) |
| O=C(Nc1ncc(Cc2cccc(C(F)(F)F)c2)s1)c1cccs1 | 2.92 (≈ 7.93 µM) |
| Cc1ccc(-c2nnc(NC(=O)c3ccc(Cl)cc3Cl)o2)c(C)c1 | 4.12 (≈ 11.4 µM) |
| CC(C)CCNC(=O)c1c(O)nc2sccn2c1=O | 13.1 (≈ 46.6 µM) |
| Nc1c(C(=O)Nc2ccc(Br)cc2)sc2nc3c(c(-c4cccs4)c12)CCCC3 | 5.12 (≈ 10.6 µM) |
| COc1ccc(-c2nnc(NC(=O)c3ccccc3F)o2)cc1 | 66.9 (≈ 214 µM) |
| O=C(Nc1nnc(-c2ccc(Cl)s2)o1)c1c(F)cccc1F | 3.8 (≈ 11.1 µM) |
| COc1cccc(C(=O)N(CCCn2ccnc2)c2nc3c(C)cccc3s2)c1OC | 4.2 (≈ 9.62 µM) |
| CCN(CC)S(=O)(=O)c1ccc(C(=O)Nc2sccc2C(=O)NC(=O)OC)cc1 | < 0.2 |
| O=C(NCCSc1c[nH]c2ccccc12)Nc1c[nH]c2ccccc12 | 10.2 (≈ 29.1 µM) |
| COc1ccccc1C(=O)Nc1nnc(-c2ccc(F)cc2)o1 | 34.9 (≈ 111 µM) |
| CC(=O)N1CCc2c(sc(NC(=O)c3ccc(C)cc3)c2C(N)=O)C1 | 8.93 (≈ 25 µM) |
| Cc1cccc(C(=O)Nc2nnc(-c3ccccn3)o2)c1 | 19.3 (≈ 68.8 µM) |

| SMILES | IC90 [µg/mL] |
| --- | --- |
| CCOC(=O)c1ccc2nc(Nc3nc4cc5c(cc4s3)OCO5)sc2c1 | 34.8 (≈ 87.2 µM) |
| COc1cccc(NC(=O)c2ccc(COc3cccc(C)c3)o2)c1 | 11.7 (≈ 34.7 µM) |
| CN1CCc2c(sc(NC(=O)c3ccc4ccccc4c3)c2C(N)=O)C1 | 11.9 (≈ 32.5 µM) |
| O=C(Nc1nc2c(s1)COc1ccccc1-2)c1cccc(NS(=O)(=O)c2ccc(F)cc2)c1 | 13.4 (≈ 27.8 µM) |
| O=C(Nc1nnc(-c2ccc(F)cc2)o1)c1sc2ccccc2c1Cl | 9.54 (≈ 25.5 µM) |
| CCc1cccc(OCC(O)Cn2c(NCc3ccccc3)nc3c2c(=O)[nH]c(=O)n3C)c1 (configuration not stated) | 22.1 (≈ 49.1 µM) |
| CCS(=O)(=O)c1cccc(C(=O)Nc2nnc(-c3ccc(Br)cc3)o2)c1 | 7.76 (≈ 17.8 µM) |
| O=C(Nc1cccc(Br)c1)c1ccc([N+](=O)[O-])s1 | < 0.2 |
| O=C(CCOc1ccccc1)Nc1nnc(-c2ccc3c(c2)OCCO3)o1 | 95.9 (≈ 261 µM) |
| C=CCOC(=O)C1=C(C)NC(SCC(=O)OCC)=C(C#N)C1c1cccs1 (configuration not stated) | 4.44 (≈ 11 µM) |
| O=C(Nc1nnc(-c2ccc(Cl)cc2)o1)c1cc2ccccc2oc1=O | 18.2 (≈ 49.4 µM) |
| O=C(c1ccco1)N(CCCn1ccnc1)c1nc2ccc(F)cc2s1 | 1.94 (≈ 5.24 µM) |
| C=CCN(CC=C)S(=O)(=O)c1ccc(C(=O)Nc2nnc(-c3cc(Cl)ccc3Cl)o2)cc1 | 12.8 (≈ 25.9 µM) |
| COc1cc2ccccc2cc1C(=O)Nc1nnc(-c2cc(Cl)ccc2Cl)o1 | 27.6 (≈ 66.5 µM) |
| CCCC(=O)Nc1nnc(-c2ccc(C)cc2C)o1 | 2.25 (≈ 8.68 µM) |
| COc1ccc(C2c3cccn3CCN2C(=O)Nc2ccc(Cl)cc2)cc1 (configuration not stated) | 9.87 (≈ 25.8 µM) |
| Cc1sc2nc(SCC#N)[nH]c(=O)c2c1C | 17.3 (≈ 69 µM) |
| COc1ccc(CNC(=O)c2c(C)oc3c2C(=O)c2ccccc2C3=O)cc1 | 1.1 (≈ 2.93 µM) |
| COc1cc2c3nnc(-c4ccc(Cl)cc4)c-3cn(Cc3ccccc3F)c2cc1OC | 22.2 (≈ 49.7 µM) |

| SMILES | IC90 [µg/mL] |
| --- | --- |
| O=C(/C=C/c1ccc(-c2ccccc2[N+](=O)[O-])o1)c1cccs1 | 13 (≈ 39.9 µM) |
| CC(C)Cn1c(N2CCN(Cc3ccc(Cl)c(Cl)c3)CC2)nc2c1c(=O)[nH]c(=O)n2C | 1.43 (≈ 3.07 µM) |
| Fc1cccc2sc(Nc3nnc(-c4ccccc4)o3)nc12 | 9.14 (≈ 29.3 µM) |
| O=C(CC(SCc1ccco1)c1cccc([N+](=O)[O-])c1)c1ccco1 (configuration not stated) | < 0.2 |
| Cc1cc2cc(CNC(=O)C(=O)c3c[nH]c4ccccc34)ccc2[nH]1 | 8.44 (≈ 25.5 µM) |
| COc1ccc(C(=O)N(CCCn2ccnc2)c2nc3c(C)c(C)ccc3s2)cc1OC | 14.2 (≈ 31.5 µM) |
| Cc1cccc2sc(N(CCCn3ccnc3)C(=O)c3ccco3)nc12 | 0.83 (≈ 2.26 µM) |
| CCCCC(=O)Nc1nnc(-c2ccc3c(c2)OCCO3)o1 | 9.06 (≈ 29.9 µM) |
| Cc1ccccc1C(=O)Nc1nnc(-c2ccccn2)o1 | 15.2 (≈ 54.2 µM) |
| O=C(Nc1nnc(-c2ccc3c(c2)CCCC3)o1)c1ccccc1F | 0.93 (≈ 2.76 µM) |
| CC(C)(C)c1ccc(C(=O)Nc2nnc(-c3ccc(S(C)(=O)=O)cc3)o2)cc1 | 24.6 (≈ 61.7 µM) |
| Cc1ccc(-c2nnc(NC(=O)C3=COCCO3)o2)c(C)c1 | 7.35 (≈ 24.4 µM) |
| Cc1ccc(Nc2nc(N3CCN(Cc4ccccc4)CC3)nc3nccnc23)cc1Cl | 2.67 (≈ 5.99 µM) |
| Cc1cc(C)c2nc(NNC(=O)c3cc(-c4cccs4)nc4ccccc34)sc2c1 | 24.6 (≈ 57.2 µM) |
| Cc1ccc(C)c(-c2nnc(NC(=O)c3cccc(Br)c3)o2)c1 | 12.6 (≈ 33.9 µM) |
| CCc1ccc(OCC(=O)Nc2ccc(OC)cc2)cc1 | 12.7 (≈ 44.3 µM) |
| CC1(C)COCN1S(=O)(=O)c1ccc(C(=O)Nc2nnc(-c3ccc(F)cc3)o2)cc1 | 23.3 (≈ 52.1 µM) |
| O=C(COc1ccccc1)Nc1nnc(-c2cc(Cl)ccc2Cl)o1 | 27.8 (≈ 76.4 µM) |
| CCOc1cc(-c2nnc(NC(=O)c3cc4ccccc4cc3OC)o2)cc(OCC)c1OCC | 2.68 (≈ 5.61 µM) |
